The values that follow are results of earlier work, collected in patent publication US20260125680A1, “COMPOSITIONS AND METHODS FOR IMMUNE CHECKPOINT INHIBITION” (The General Hospital Corporation, priority 2018, published 2026).

Data set [1] relates to pancreatic cancer. Conditions: monotherapy.
Data set [2] concerns bladder cancer. The following applies: confirmatory trial.

In the case of Ipilimumab: anti-CTLA-4, the response result in data set [1] was “ineffective with no responders”.
“atezolizumab: FDA approved PD-L1 inhibitor”: the “primary endpoint of overall survival” value in data set [2] is listed as “failed to achieve its primary endpoint”.
